Target: T1, Human CaV2.2 channels (Homo sapiens, UniProt Q00975)
T1 construct: expressed in transfected cells; Kir2.3 also stably co-expressed
Experiment: Fluorescence assay for CaV2.2 channels using potassium depolarization to induce channel opening (FLIPR, Fluo 4)
Type: cell-based
Settings: 30 mM KCl assay buffer (inactivated channel state), HEK293 cells; for Activity Category: %-Inhib (CaV2.2) @3 μM @30 mM KCl: 3 μM test compound; for inhibition at 3 µM: HEK293, 3 μM test compound, read-out: Activity Category: %-Inhib (CaV2.2) @3 μM @30 mM KCl
Excerpt: In the process, the Ca^2+ influx is quantified in the FLIPR assay with the aid of a Ca^2+-sensitive dye (type Fluo-4, Molecular Probes Europe BV, Leiden, the Netherlands) in a fluorescent imaging plate reader (FLIPR 3, Molecular Devices, Sunnyvale, USA), as described hereinafter.
Human CaV2.2 channels were stably expressed in HEK293 cells together with alpha2-delta and beta subunits of voltage gated calcium channels. In addition, an inwardly rectifying potassium channel (Kir2.3) was stably expressed in these cells to augment control of the cell membrane potential by the concentration of extracellular potassium ions. Raise of the extracellular potassium concentration leads to depolarization of the membrane potential and thus regulates the voltage dependent state of CaV2.2 channels. For preparation, cells were seeded in black poly-D-lysine coated 96-well plates (Becton Dickinson, Biocoat 4640) in 100 μL medium [500 mL DMEM/F-12 plus Glutamax (Invitrogen 31331-093) plus 5.5 mL MEM NEAA 100× (Invitrogen 11140-035) plus 50 mL FBS decomplemented (Invitrogen 10270-106) plus 200 μg/mL Geneticin (Invitrogen 10131-027) plus 50 μg/mL Hygromycin B (Invitrogen 10687-010) plus 2 μg/mL Blasticidin (anti-bl5b Invivo-Gen) plus 0.2 μg/mL Puromycin (A 11138-03)] at a cell density of 30.000 cells per well. Plates were incubated at 37° C. (5% CO2) for 20 to 23 h. On the day of experiment medium was discarded and cells were loaded with Fluo 4 by addition of 100 μL of basic assay buffer (10 mM HEPES, 1 mM KCl, 149 mM NaCl, 0.8 mM CaCl2, 1.7 mM MgCl2, 10 mM Glucose, 0.1% BSA. pH 7.4) containing 2 μM Fluo 4 (Molecular Probes; F-14201), 0.01% pluronic acid (Molecular Probes; P-6866) and 2.5 mM probenecid (Molecular Probes; P36400). Cells were incubated in the dark at 25° C. for 60 min. Then dye containing buffer was discarded and 100 μL basic (1 mM KCl) or alternative (30 mM KCl) assay buffer was added. The alternative assay buffer contained altered concentrations of KCl (30 mM) and NaCl (120 mM) and was used in order to promote the inactivated channel state. After that 25 μL of basic or alternative assay buffer with or without test compound were added and cells were incubated again in the dark at 25° C. for 15 min. Fluorescence intensity was measured on a FLIPR 3 instrument (Molecular Devices Corp., Sunnyvale, Calif.) with excitation at 480 nm and emission at 535 nm. After continuously reading fluorescence for 30 sec, 50 μL of basic assay buffer containing 210 mM KCl (NaCl omitted) were added for depolarization. Peak fluorescent signal intensity was determined and the amplitude of the peak signal, normalized to base line, was used to measure channel inhibition by test compounds.

T1 sequence (Q00975 whole entry): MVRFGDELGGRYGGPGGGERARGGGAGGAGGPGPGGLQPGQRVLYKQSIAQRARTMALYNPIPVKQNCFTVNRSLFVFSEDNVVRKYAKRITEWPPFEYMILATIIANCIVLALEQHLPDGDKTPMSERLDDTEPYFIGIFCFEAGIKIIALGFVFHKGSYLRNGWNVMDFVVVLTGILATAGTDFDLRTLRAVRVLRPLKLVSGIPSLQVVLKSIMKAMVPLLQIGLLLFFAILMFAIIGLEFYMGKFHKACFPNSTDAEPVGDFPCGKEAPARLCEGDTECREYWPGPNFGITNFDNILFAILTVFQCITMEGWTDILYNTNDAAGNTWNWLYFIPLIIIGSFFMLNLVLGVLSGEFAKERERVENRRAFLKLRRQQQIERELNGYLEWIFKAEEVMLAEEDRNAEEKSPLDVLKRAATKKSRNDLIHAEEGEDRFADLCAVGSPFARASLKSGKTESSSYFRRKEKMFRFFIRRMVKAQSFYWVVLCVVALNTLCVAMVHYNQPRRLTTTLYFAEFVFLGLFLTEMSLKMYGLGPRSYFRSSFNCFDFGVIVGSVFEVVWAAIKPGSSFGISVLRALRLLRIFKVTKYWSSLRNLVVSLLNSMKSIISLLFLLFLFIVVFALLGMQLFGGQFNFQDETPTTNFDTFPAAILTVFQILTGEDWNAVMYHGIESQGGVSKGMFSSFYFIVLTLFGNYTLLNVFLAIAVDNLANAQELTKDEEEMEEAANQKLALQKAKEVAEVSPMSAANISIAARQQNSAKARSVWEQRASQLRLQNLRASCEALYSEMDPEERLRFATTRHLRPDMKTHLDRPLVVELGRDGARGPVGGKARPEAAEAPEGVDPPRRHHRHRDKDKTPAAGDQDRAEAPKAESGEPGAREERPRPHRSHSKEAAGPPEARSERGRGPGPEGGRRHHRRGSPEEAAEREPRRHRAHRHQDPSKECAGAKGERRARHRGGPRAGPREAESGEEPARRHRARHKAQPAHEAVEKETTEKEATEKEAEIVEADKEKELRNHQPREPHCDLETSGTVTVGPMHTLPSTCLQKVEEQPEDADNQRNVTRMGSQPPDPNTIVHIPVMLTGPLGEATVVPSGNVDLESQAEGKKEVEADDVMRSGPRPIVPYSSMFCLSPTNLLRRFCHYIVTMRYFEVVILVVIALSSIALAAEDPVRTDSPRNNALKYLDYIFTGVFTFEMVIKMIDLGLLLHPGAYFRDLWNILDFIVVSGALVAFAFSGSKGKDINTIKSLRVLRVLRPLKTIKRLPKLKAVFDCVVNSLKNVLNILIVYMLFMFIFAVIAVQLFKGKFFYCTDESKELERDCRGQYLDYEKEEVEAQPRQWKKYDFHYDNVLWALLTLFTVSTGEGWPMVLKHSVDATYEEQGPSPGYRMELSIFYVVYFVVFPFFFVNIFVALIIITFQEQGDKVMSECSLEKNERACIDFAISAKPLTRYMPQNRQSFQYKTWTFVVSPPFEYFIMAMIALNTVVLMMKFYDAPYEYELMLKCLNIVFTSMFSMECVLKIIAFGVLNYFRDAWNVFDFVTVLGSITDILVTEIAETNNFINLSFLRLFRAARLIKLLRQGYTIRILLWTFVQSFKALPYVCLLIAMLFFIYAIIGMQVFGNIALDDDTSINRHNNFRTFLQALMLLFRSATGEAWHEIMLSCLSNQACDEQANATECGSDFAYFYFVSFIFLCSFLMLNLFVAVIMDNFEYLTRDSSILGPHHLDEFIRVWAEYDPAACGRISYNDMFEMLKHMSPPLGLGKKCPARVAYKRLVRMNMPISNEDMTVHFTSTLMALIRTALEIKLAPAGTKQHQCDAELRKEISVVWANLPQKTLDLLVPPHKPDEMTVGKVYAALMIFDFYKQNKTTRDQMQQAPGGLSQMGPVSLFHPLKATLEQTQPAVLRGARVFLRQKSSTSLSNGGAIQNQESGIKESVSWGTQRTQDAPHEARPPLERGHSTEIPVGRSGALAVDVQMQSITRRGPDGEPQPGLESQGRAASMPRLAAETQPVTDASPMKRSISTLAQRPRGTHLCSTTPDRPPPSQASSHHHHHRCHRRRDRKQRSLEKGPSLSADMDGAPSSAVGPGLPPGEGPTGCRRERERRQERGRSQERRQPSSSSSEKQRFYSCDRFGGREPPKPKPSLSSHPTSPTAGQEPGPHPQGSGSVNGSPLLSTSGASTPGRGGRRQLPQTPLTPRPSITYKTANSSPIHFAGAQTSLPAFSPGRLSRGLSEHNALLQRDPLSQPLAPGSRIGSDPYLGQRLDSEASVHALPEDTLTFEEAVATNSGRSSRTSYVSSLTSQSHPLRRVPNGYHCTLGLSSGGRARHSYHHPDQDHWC

SMILES	Activity Category: %-Inhib (CaV2.2) @3 μM @30 mM KCl	inhibition at 3 µM
CC1(S(=O)(=O)c2cccc(C(F)(F)F)c2)CCOC(c2ccc(Cl)cc2)C1 (stereo not drawn) [SC-311, 2-(4-Chlorophenyl)-4-methyl-4-[[3-(trifluoromethyl)phenyl]sulfonyl]-tetrahydro-pyran]	A (%-Inhibition >95%)	–
CC1(S(=O)(=O)c2cccc(C(F)(F)F)c2)CCOC(c2cc(F)ccc2S(C)(=O)=O)C1 (stereo not drawn) [SC-204, 2-(5-Fluoro-2-methylsulfonyl-phenyl)-4-methyl-4-[[3-(trifluoromethyl)phenyl]sulfonyl]-tetrahydro-pyran]	A (%-Inhibition >95%)	–
CC1(S(=O)(=O)c2cccc(C(F)(F)F)c2)COC(c2ccc(Cl)cc2)C1 (stereo not drawn) [SC-103, 2-(4-Chlorophenyl)-4-methyl-4-[[3-(trifluoromethyl)phenyl]sulfonyl]-tetrahydro-furan]	A (%-Inhibition >95%)	–
CC1(S(=O)(=O)c2cccc(C3CC3)c2)CCOC(c2ccc(S(C)(=O)=O)cc2F)C1 (stereo not drawn) [SC-513, 4-[(3-Cyclopropyl-phenyl)sulfonyl]-2-(2-fluoro-4-methylsulfonyl-phenyl)-4-methyl-tetrahydro-pyran]	A (%-Inhibition >95%)	–
CC1(S(=O)(=O)c2cccc(C(F)(F)F)c2)CCOC(c2ccc(S(C)(=O)=O)cc2C(F)(F)F)C1 (stereo not drawn) [SC-255, 4-Methyl-2-[4-methylsulfonyl-2-(trifluoromethyl)-phenyl]-4-[[3-(trifluoromethyl)phenyl]sulfonyl]-tetrahydro-pyran]	–	> 95%
CC1(S(=O)(=O)c2cccc(C(F)(F)F)c2)CCOC(c2ccc(S(C)(=O)=O)cc2C#N)C1 (stereo not drawn) [SC-275, 5-Methylsulfonyl-2-[4-methyl-4-[[3-(trifluoromethyl)phenyl]sulfonyl]-tetrahydro-pyran-2-yl]-benzonitrile]	–	75 to 95%
CC1(S(=O)(=O)c2cccc(C3CC3)c2)CCOC(c2ccc(S(C)(=O)=O)cc2F)C1 (stereo not drawn) [SC-512, 4-[(3-Cyclopropyl-phenyl)sulfonyl]-2-(2-fluoro-4-methylsulfonyl-phenyl)-4-methyl-tetrahydro-pyran]	–	75 to 95%
CC1(S(=O)(=O)c2cccc(C(F)(F)F)c2)CCOC(c2ccc(C#N)cc2S(C)(=O)=O)C1 (stereo not drawn) [SC-252, 3-Methylsulfonyl-4-[4-methyl-4-[[3-(trifluoromethyl)phenyl]sulfonyl]-tetrahydro-pyran-2-yl]-benzonitrile]	B (%-Inhibition >75% up to ≦95%)	–
COCC1(S(=O)(=O)c2cccc(C(F)(F)F)c2)CCOC(c2ccc(Cl)cc2)C1 (stereo not drawn) [SC-216, 2-(4-Chlorophenyl)-4-(methoxymethyl)-4-[[3-(trifluoromethyl)phenyl]sulfonyl]-tetrahydro-pyran]	B (%-Inhibition >75% up to ≦95%)	–
CC1(S(=O)(=O)c2cccc(C3CC3)c2)CCOC(c2ccc(S(C)(=O)=O)cc2F)C1 (racemic) [SC-514, 4-[(3-Cyclopropyl-phenyl)sulfonyl]-2-(2-fluoro-4-methylsulfonyl-phenyl)-4-methyl-tetrahydro-pyran]	–	> 95%
CC1(S(=O)(=O)c2cccc(C(F)(F)F)c2)CCOC(c2ccc(S(=O)(=O)CCO)cc2)C1 (stereo not drawn) [SC-286, 2-[[4-[4-Methyl-4-[[3-(trifluoromethyl)phenyl]sulfonyl]-tetrahydro-pyran-2-yl]-phenyl]sulfonyl]-ethanol]	–	75 to 95%
CC1(S(=O)(=O)c2cccc(C(F)(F)F)c2)CCOC(c2ccc(Cl)cc2)C1 (stereo not drawn) [SC-310, 2-(4-Chlorophenyl)-4-methyl-4-[[3-(trifluoromethyl)phenyl]sulfonyl]-tetrahydro-pyran]	–	> 95%
CC1(S(=O)(=O)c2cccc(C(F)(F)F)c2)CCOC(c2ccc(S(C)(=O)=O)c(S(C)(=O)=O)c2)C1 (single isomer, unassigned) [SC-132, 2-[3,4-Bis(methylsulfonyl)-phenyl]-4-methyl-4-[[3-(trifluoromethyl)phenyl]sulfonyl]-tetrahydro-pyran]	–	75 to 95%
Cc1cc(C2CC(C)(S(=O)(=O)c3cccc(C(F)(F)F)c3)CCO2)ccc1S(C)(=O)=O (stereo not drawn) [SC-206, 4-Methyl-2-(3-methyl-4-methylsulfonyl-phenyl)-4-[[3-(trifluoromethyl)phenyl]sulfonyl]-tetrahydro-pyran]	–	> 95%
CC1(S(=O)(=O)c2cccc(C(F)(F)F)c2)CCOC(c2ccc(C(F)(F)F)cc2S(C)(=O)=O)C1 (stereo not drawn) [SC-232, 4-Methyl-2-[2-methylsulfonyl-4-(trifluoromethyl)-phenyl]-4-[[3-(trifluoromethyl)phenyl]sulfonyl]-tetrahydro-pyran]	–	> 95%
CC1(S(=O)(=O)c2cccc(C(F)(F)F)c2)CCOC(c2ccc(C#N)c(S(C)(=O)=O)c2)C1 (stereo not drawn) [SC-261, 2-Methylsulfonyl-4-[4-methyl-4-[[3-(trifluoromethyl)phenyl]sulfonyl]-tetrahydro-pyran-2-yl]-benzonitrile]	–	> 95%
CN(C)CC1(S(=O)(=O)c2cccc(C(F)(F)F)c2)CCOC(c2ccc(Cl)cc2)C1 (stereo not drawn) [SC-215, [[2-(4-Chlorophenyl)-4-[[3-(trifluoromethyl)phenyl]sulfonyl]-tetrahydro-pyran-4-yl]-methyl]-dimethyl-amine]	C (%-Inhibition >40% up to ≦75%)	–
CC1(S(=O)(=O)c2cccc(C(F)(F)F)c2)CCOC(c2ccc(-n3cncn3)cc2)C1 (single isomer, unassigned) [SC-134, 1-[4-[4-Methyl-4-[[3-(trifluoromethyl)phenyl]sulfonyl]-tetrahydro-pyran-2-yl]-phenyl]-1H-[1,2,4]triazole]	–	75 to 95%
CC1(S(=O)(=O)c2cccc(C(F)(F)F)c2)COC(c2ccc(Cl)cc2)C1 (stereo not drawn) [SC-102, 2-(4-Chlorophenyl)-4-methyl-4-[[3-(trifluoromethyl)phenyl]sulfonyl]-tetrahydro-furan]	B (%-Inhibition >75% up to ≦95%)	–
CC1(S(=O)(=O)c2cccc(C(F)(F)F)c2)CCOC(c2ccc(C#N)cc2S(C)(=O)=O)C1 (stereo not drawn) [SC-251, 3-Methylsulfonyl-4-[4-methyl-4-[[3-(trifluoromethyl)phenyl]sulfonyl]-tetrahydro-pyran-2-yl]-benzonitrile]	–	> 95%
CC1(S(=O)(=O)c2cc(F)cc(C(F)(F)F)c2)CCOC(c2ccc(S(C)(=O)=O)cc2F)C1 (stereo not drawn) [SC-518, 2-(2-Fluoro-4-methylsulfonyl-phenyl)-4-[[3-fluoro-5-(trifluoromethyl)-phenyl]sulfonyl]-4-methyl-tetrahydro-pyran]	–	75 to 95%
CC1(S(=O)(=O)c2cccc(C(F)F)c2)CCOC(c2ccc(S(C)(=O)=O)cc2F)C1 (racemic) [SC-508, 4-[[3-(Difluoro-methyl)-phenyl]sulfonyl]-2-(2-fluoro-4-methylsulfonyl-phenyl)-4-methyl-tetrahydro-pyran]	–	75 to 95%
CC1(S(=O)(=O)c2cccc(C(F)(F)F)c2)CCOC(c2ccc(F)c(S(C)(=O)=O)c2)C1 (stereo not drawn) [SC-213, 2-(4-Fluoro-3-methylsulfonyl-phenyl)-4-methyl-4-[[3-(trifluoromethyl)phenyl]sulfonyl]-tetrahydro-pyran]	B (%-Inhibition >75% up to ≦95%)	–
Cc1cc(S(C)(=O)=O)ccc1C1CC(C)(S(=O)(=O)c2cccc(C(F)(F)F)c2)CCO1 (stereo not drawn) [SC-254, 4-Methyl-2-(2-methyl-4-methylsulfonyl-phenyl)-4-[[3-(trifluoromethyl)phenyl]sulfonyl]-tetrahydro-pyran]	A (%-Inhibition >95%)	–

Reference: patent publication US9896440B2, “Aryl substituted heterocyclyl sulfones” (GRÜNENTHAL GMBH, priority 2014, dated 2018)
